# Values of other authors in patent publication US20230128032A1, “Early Drug Interventions to Reduce COVID-19 Related Respiratory Distress, Need for Respirator Assist and Death” (Curtails LLC, priority 2020, published 2023).
# Bridges are numbered along the chain shown (N, C = ends). Where no end group is shown, it is not given here.
# How the values were obtained:
# [1] = tested on: patients with pulmonary arterial hypertension; conditions: racecadotril treatment
# isolated perfused lung = conditions: increased capillary pressure, hypoxia or inflammatory stimuli such as detergents or prostaglandins
# [2] = tested on: patients with acute lung injury; conditions: intravenous infusion, mechanical ventilation with positive end-expiratory pressure
# [3] = tested on: intensive care patients without heart disease
# mice = conditions: ANP pretreatment
Molecule,increase in plasma cGMP levels [1] [%],increase in the plasma ANP concentration [1] [%],reduction in pulmonary vascular resistance [1] [%],pulmonary oedema induced by lung ischaemia-reperfusion injury (rodents),anti-oedematic action in isolated perfused lung (isolated perfused lung),lung injury score [2],pulmonary gas exchange [2],pulmonary oedema [3],"lung injury, inflammation and endothelial barrier dysfunction induced by gram-negative bacterial wall LPS or Staphylococcus Aureus infection (mice)",pulmonary oedema induced by congestive heart failure (dogs)
CC(=O)SCC(Cc1ccccc1)C(=O)NCC(=O)OCc1ccccc1 (stereo not shown) [racecadotril],106,79,14,–,–,–,–,–,–,–
"ANP: synthetic form of the GC-A agonist peptide atrial natriuretic peptide (SLRRSSCFGGRMDRIGAQSGLGCNSFRY; disulfide 7-23; ends not checked; UniProt P01160 124-151, looked up)",–,–,–,attenuated,direct anti-oedematic action,improved,improved,diminished,protected,attenuated
